Source: patent publication US10302663B2, “Method of assessing pancreatic beta-cell function” (METABOLON, INC., priority 2011, dated 2019)

What was measured:
INS-1e cells = assay: Glucose-stimulated insulin release in INS-1e cells; format: cell-based, rat; conditions: INS-1e cells incubated 48 h with physiological concentrations of metabolite, then 3.3, 11, 20 mM glucose or 20 mM glucose+10 mM arginine, FIG. 2
Procedure: Clonal INS-1e cells, derived and selected from a parental rat insulinoma INS-1 cell line (University of Geneva, Geneva, Switzerland), were grown in monolayer culture in RPMI 1640 medium containing 11.1 mM glucose. The culture medium was supplemented with 10% heat-inactivated fetal calf serum, 1 mM sodium pyruvate, 10 mM HEPES, 2 mM glutamine, 50 μmol/liter β-mercaptoethanol, 100 U/ml penicillin, and 100 μg/ml streptomycin. Cells were cultured at 37 C in a humidified 95% air-5% CO2 atmosphere. Cells were seeded onto wells at a density of 1.5×10^5 cells/well at least 96 h before using them in the insulin secretion experiments. Tissue culture reagents were obtained from Life Technologies, Inc. Invitrogen (Basel, Switzerland).
The insulin secretory response to glucose was tested in INS-1e cells. When cells had reached approximately 80% confluence, cells were incubated for 48 h in fresh RPMI 1640 medium containing 11.1 mM glucose, in the presence or absence of different physiological concentrations of metabolites alpha-hydroxybutyrate (2-HB) (Sigma-Aldrich) and linoleoyl-glycerophosphocholine (L-GPC) (Avanti Polar Lipids). Next, cells were maintained for 1 h in glucose-free Krebs-Ringer bicarbonate HEPES buffer containing 135 mm NaCl, 3.6 mm KCl, 5 mm NaHCO3, 0.5 mm Na H2PO4, 0.5 mm MgCl2, 1.5 mm CaCl2, 10 mm HEPES, and BSA 0.1% (glucose-free; pH 7.4; starvation period) and then washed with glucose-free Krebs-Ringer bicarbonate-HEPES buffer and subsequently incubated for […] with Krebs-Ringer bicarbonate-HEPES buffer containing 3.3, 11, 20 mM glucose, or 20 mM glucose+10 mM arginine. At the end of incubation, supernatants were collected to measure insulin concentration (Linco Research, St. Charles, Mo.). Cellular insulin contents were determined in acid-ethanol extracts. The insulin secretory response to glucose was expressed as the ratio of insulin concentration in the supernatant to the cellular insulin content.

[1] = Beta-cell biomarker levels in fasted plasma in response to pioglitazone therapy in IGT subjects; format: in vivo, human; conditions: pioglitazone 45 mg/day, 2.4 years, baseline vs study end
Procedure: In another study, the relationship between changes in the IS/IR Disposition index and changes in the levels of the beta-cell function biomarkers, AHB and LGPC following drug treatment were determined. The study cohort consisted of 431 IGT subjects (FPG=105, 2-h PG [OGTT]=168, HbA1C=5.5%) who were randomized to pioglitazone (45 mg/day) or placebo and followed for 2.4 years. Fasted plasma samples were analyzed at baseline and study end for AHB, LGPC, insulin, HbA1c and Matsuda index.
A method for measuring each of the biomarkers listed in Table 4 in EDTA human plasma was developed. Human plasma samples were spiked with internal standards and subjected to protein precipitation as described below. Following centrifugation, the supernatant was removed and injected onto a Waters Acquity/Thermo Quantum Ultra LC-MS-MS system using four different chromatographic systems (column/mobile phase combinations).

SMILES	effect on glucose-stimulated insulin release (ratio of insulin in supernatant to cellular insulin content) (INS-1e cells)	effect on glucose-stimulated insulin release (ratio of insulin in supernatant to cellular insulin content) (INS-1e cells; listed as 2-hydroxybutyrate)	Fold change of Linoleoyl-GPC Before and after PIO ([1]; p<0.005)	Fold change of α-HB Before and after PIO ([1]; p=0.001)	effect on glucose-stimulated insulin release (ratio of insulin in supernatant to cellular insulin content) (INS-1e cells; listed as Linoleoyl-GPC)
CC[C@H](O)C(=O)O [AHB, 2-hydroxybutyrate]	inhibited the glucose stimulated release of insulin	inhibitory effect			
CCc1ccc(CCOc2ccc(CC3SC(=O)NC3=O)cc2)nc1 (stereo not drawn) [PIO, pioglitazone]			1.21 ↑	0.90 ↓	
CCCCC/C=C\C/C=C\CCCCCCCC(=O)OC[C@@H](O)COP(=O)([O-])OCC[N+](C)(C)C [LGPC, linoleoyl lysophosphatidylcholine]	stimulated the glucose stimulated release of insulin				stimulatory effect
